± gives the standard deviation of the averaged measurements.
How the values were obtained:
Assay in all cases: level (log10 ratio to DMSO vehicle control); higher = higher biomarker level / cell amount than vehicle control
Conditions in all cases: in DMSO
[1] = compound: C=CC(=O)OCCC(F)(F)C(F)(F)C(F)(F)C(F)(F)F [2-(Perfluorobutyl)ethyl acrylate]
Experimental: (§1)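 BioMAP Diversity Plus panel of 12 human primary cell co-culture systems (3C, 4H, LPS, SAg, BT, BF4T, BE3C, CASM3C, HDF3CGF, KF3CT, MyoF, Mphg). Compounds were added 1 h before stimulation and left for 24 h (MyoF 48 h; BT 72 h for soluble read-outs or 6 d for IgG). Biomarkers were read by ELISA, cytotoxicity by SRB, PBMC viability and proliferation by Alamar Blue. Each well value was divided by the mean of 8 DMSO control wells on the same plate and log10 transformed; duplicate blinded samples were tested at 4 concentrations.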

[2] = compound: CC(C)(C)C(=O)CC(=O)C(F)(F)C(F)(F)C(F)(F)F [(Heptafluorobutanoyl)pivaloylmethane]
Experimental: as §1

Perfluorooctanamidine = compound: N=C(N)C(F)(F)C(F)(F)C(F)(F)C(F)(F)C(F)(F)C(F)(F)C(F)(F)F [Perfluorooctanamidine]
Experimental: as §1

Perfluorooctanamide = compound: NC(=O)C(F)(F)C(F)(F)C(F)(F)C(F)(F)C(F)(F)C(F)(F)C(F)(F)F [Perfluorooctanamide]
Experimental: as §1

[3] = compound: O=C(O)C(F)(F)C(F)(F)C(F)(F)C(F)(F)C(F)(F)C(F)(F)C(F)(F)C(F)(F)Cl [9-Chloro-perfluorononanoic acid]
Experimental: as §1

[4] = compound: O=C(O)CCC(F)(F)C(F)(F)C(F)(F)C(F)(F)C(F)(F)F [2H,2H,3H,3H-Perfluorooctanoic acid]
Experimental: as §1

[5] = compound: OCC(F)(F)C(F)(F)C(F)(F)C(F)(F)C(F)(F)C(F)F [1H,1H,7H-Dodecafluoro-1-heptanol]
Experimental: as §1

## HDF3CGF:TIMP-1
[1]; 6700 nM
  level (log10): -0.0375 ± 0.033
[1]; 20000 nM
  level (log10): -0.0285 ± 0.0064
[1]; 60000 nM
  level (log10): -0.053 ± 0.03
[2]; 6700 nM
  level (log10): -0.011 ± 0.03
[2]; 20000 nM
  level (log10): -0.0005 ± 0.005
[2]; 60000 nM
  level (log10): 0.0085 ± 0.018
Perfluorooctanamidine; 6700 nM
  level (log10): 0.013 ± 0.042
Perfluorooctanamidine; 20000 nM
  level (log10): 0.018 ± 0.05
Perfluorooctanamidine; 60000 nM
  level (log10): 0.092
Perfluorooctanamide; 6700 nM
  level (log10): -0.0405 ± 0.049
Perfluorooctanamide; 20000 nM
  level (log10): -0.022 ± 0.02
Perfluorooctanamide; 60000 nM
  level (log10): -0.0575 ± 0.0035
[3]; 6700 nM
  level (log10): -0.028 ± 0.027
[3]; 20000 nM
  level (log10): -0.0105 ± 0.056
[4]; 6700 nM
  level (log10): -0.019 ± 0.064
[4]; 20000 nM
  level (log10): -0.01 ± 0.11
[4]; 60000 nM
  level (log10): -0.047 ± 0.17
[5]; 6700 nM
  level (log10): -0.015 ± 0.027
[5]; 20000 nM
  level (log10): -0.0055 ± 0.033
[5]; 60000 nM
  level (log10): 0.011 ± 0.044

## HDF3CGF:TIMP-2
[1]; 6700 nM
  level (log10): -0.0725 ± 0.057
[1]; 20000 nM
  level (log10): -0.0805 ± 0.047
[1]; 60000 nM
  level (log10): -0.0995 ± 0.035
[2]; 6700 nM
  level (log10): -0.0005 ± 0.019
[2]; 20000 nM
  level (log10): -0.006 ± 0.013
[2]; 60000 nM
  level (log10): -0.019 ± 0.016
Perfluorooctanamidine; 6700 nM
  level (log10): -0.008 ± 0.027
Perfluorooctanamidine; 20000 nM
  level (log10): -0.012 ± 0.031
Perfluorooctanamidine; 60000 nM
  level (log10): -0.018
Perfluorooctanamide; 6700 nM
  level (log10): -0.0085 ± 0.005
Perfluorooctanamide; 20000 nM
  level (log10): -0.035 ± 0.011
Perfluorooctanamide; 60000 nM
  level (log10): -0.0145 ± 0.022
[3]; 6700 nM
  level (log10): -0.0645 ± 0.04
[3]; 20000 nM
  level (log10): -0.146 ± 0.029
[4]; 6700 nM
  level (log10): -0.0325 ± 0.021
[4]; 20000 nM
  level (log10): -0.04 ± 0.023
[4]; 60000 nM
  level (log10): 0.005 ± 0.047
[5]; 6700 nM
  level (log10): -0.0025 ± 0.0092
[5]; 20000 nM
  level (log10): -0.0035 ± 0.0021
[5]; 60000 nM
  level (log10): 0.0025 ± 0.022

## KF3CT:CCL2/MCP-1
[1]; 6700 nM
  level (log10): -0.036 ± 0.0099
[1]; 20000 nM
  level (log10): -0.0515 ± 0.0035
[1]; 60000 nM
  level (log10): -0.028 ± 0.086
[2]; 6700 nM
  level (log10): 0.0025 ± 0.005
[2]; 20000 nM
  level (log10): 0.035 ± 0.0085
[2]; 60000 nM
  level (log10): 0.0645 ± 0.013
Perfluorooctanamidine; 6700 nM
  level (log10): -0.0075 ± 0.0064
Perfluorooctanamidine; 20000 nM
  level (log10): 0.029 ± 0.0099
Perfluorooctanamidine; 60000 nM
  level (log10): 0.092
Perfluorooctanamide; 6700 nM
  level (log10): -0.011 ± 0.017
Perfluorooctanamide; 20000 nM
  level (log10): -0.034 ± 0.031
Perfluorooctanamide; 60000 nM
  level (log10): -0.091 ± 0.0028
[3]; 6700 nM
  level (log10): 0.004 ± 0.023
[3]; 20000 nM
  level (log10): 0.036 ± 0.035
[4]; 6700 nM
  level (log10): -0.026
[4]; 20000 nM
  level (log10): 0.0135 ± 0.016
[4]; 60000 nM
  level (log10): -0.0235 ± 0.069
[5]; 6700 nM
  level (log10): -0.0055 ± 0.021
[5]; 20000 nM
  level (log10): -0.0155 ± 0.015
[5]; 60000 nM
  level (log10): 0.004 ± 0.028

## KF3CT:CD54/ICAM-1
[1]; 6700 nM
  level (log10): -0.0085 ± 0.0092
[1]; 20000 nM
  level (log10): -0.0245 ± 0.0078
[1]; 60000 nM
  level (log10): -0.054 ± 0.0099
[2]; 6700 nM
  level (log10): -0.0095 ± 0.011
[2]; 20000 nM
  level (log10): -0.0265 ± 0.018
[2]; 60000 nM
  level (log10): -0.021 ± 0.0042
Perfluorooctanamidine; 6700 nM
  level (log10): 0.0055 ± 0.033
Perfluorooctanamidine; 20000 nM
  level (log10): 0.0175 ± 0.022
Perfluorooctanamidine; 60000 nM
  level (log10): 0.064
Perfluorooctanamide; 6700 nM
  level (log10): 0.0015 ± 0.0078
Perfluorooctanamide; 20000 nM
  level (log10): 0 ± 0.014
Perfluorooctanamide; 60000 nM
  level (log10): 0.001
[3]; 6700 nM
  level (log10): -0.0175 ± 0.00071
[3]; 20000 nM
  level (log10): -0.039 ± 0.0014
[4]; 6700 nM
  level (log10): -0.016 ± 0.0085
[4]; 20000 nM
  level (log10): -0.0205 ± 0.018
[4]; 60000 nM
  level (log10): -0.0285 ± 0.023
[5]; 6700 nM
  level (log10): -0.002 ± 0.016
[5]; 20000 nM
  level (log10): -0.0115 ± 0.0064
[5]; 60000 nM
  level (log10): 0.003 ± 0.017

## KF3CT:CXCL8/IL-8
[1]; 6700 nM
  level (log10): -0.0095 ± 0.021
[1]; 20000 nM
  level (log10): -0.003 ± 0.0014
[1]; 60000 nM
  level (log10): -0.0105 ± 0.018
[2]; 6700 nM
  level (log10): -0.015 ± 0.011
[2]; 20000 nM
  level (log10): -0.0165 ± 0.0078
[2]; 60000 nM
  level (log10): 0.016 ± 0.0014
Perfluorooctanamidine; 6700 nM
  level (log10): 0.0135 ± 0.021
Perfluorooctanamidine; 20000 nM
  level (log10): 0.0305 ± 0.018
Perfluorooctanamidine; 60000 nM
  level (log10): 0.043
Perfluorooctanamide; 6700 nM
  level (log10): -0.005 ± 0.0014
Perfluorooctanamide; 20000 nM
  level (log10): -0.027 ± 0.018
Perfluorooctanamide; 60000 nM
  level (log10): -0.062 ± 0.0057
[3]; 6700 nM
  level (log10): 0.0015 ± 0.021
[3]; 20000 nM
  level (log10): -0.0025 ± 0.0035
[4]; 6700 nM
  level (log10): -0.017 ± 0.042
[4]; 20000 nM
  level (log10): -0.009 ± 0.028
[4]; 60000 nM
  level (log10): -0.0295 ± 0.0021
[5]; 6700 nM
  level (log10): 0.017 ± 0.0028
[5]; 20000 nM
  level (log10): 0.01 ± 0.025
[5]; 60000 nM
  level (log10): 0.0165 ± 0.016

## KF3CT:CXCL9/MIG
[1]; 6700 nM
  level (log10): -0.0035 ± 0.0021
[1]; 20000 nM
  level (log10): 0.008 ± 0.0042
[1]; 60000 nM
  level (log10): -0.0235 ± 0.015
[2]; 6700 nM
  level (log10): 0.0025 ± 0.0035
[2]; 20000 nM
  level (log10): -0.002 ± 0.0042
[2]; 60000 nM
  level (log10): 0.0055 ± 0.0021
Perfluorooctanamidine; 6700 nM
  level (log10): -0.0015 ± 0.011
Perfluorooctanamidine; 20000 nM
  level (log10): -0.0005 ± 0.0092
Perfluorooctanamidine; 60000 nM
  level (log10): 0.015
Perfluorooctanamide; 6700 nM
  level (log10): 0.0035 ± 0.039
Perfluorooctanamide; 20000 nM
  level (log10): 0.0105 ± 0.016
Perfluorooctanamide; 60000 nM
  level (log10): 0.018 ± 0.0042
[3]; 6700 nM
  level (log10): 0.0025 ± 0.0092
[3]; 20000 nM
  level (log10): -0.0015 ± 0.0021
[4]; 6700 nM
  level (log10): -0.004 ± 0.011
[4]; 20000 nM
  level (log10): 0.0025 ± 0.0092
[4]; 60000 nM
  level (log10): 0.0075 ± 0.00071
[5]; 6700 nM
  level (log10): 0.0135 ± 0.012
[5]; 20000 nM
  level (log10): 0.0065 ± 0.0035
[5]; 60000 nM
  level (log10): 0.0015 ± 0.018

## KF3CT:CXCL10/IP-10
[1]; 6700 nM
  level (log10): -0.009 ± 0.0057
[1]; 20000 nM
  level (log10): -0.0125 ± 0.022
[1]; 60000 nM
  level (log10): -0.0285 ± 0.0078
[2]; 6700 nM
  level (log10): 0.004 ± 0.0099
[2]; 20000 nM
  level (log10): -0.006 ± 0.0028
[2]; 60000 nM
  level (log10): 0.007 ± 0.0014
Perfluorooctanamidine; 6700 nM
  level (log10): 0.012 ± 0.042
Perfluorooctanamidine; 20000 nM
  level (log10): 0.0025 ± 0.04
Perfluorooctanamidine; 60000 nM
  level (log10): 0.04
Perfluorooctanamide; 6700 nM
  level (log10): 0.0285 ± 0.036
Perfluorooctanamide; 20000 nM
  level (log10): 0.0365 ± 0.037
Perfluorooctanamide; 60000 nM
  level (log10): 0.0365 ± 0.016
[3]; 6700 nM
  level (log10): -0.0235 ± 0.0035
[3]; 20000 nM
  level (log10): -0.0715 ± 0.0092
[4]; 6700 nM
  level (log10): -0.0045 ± 0.0021
[4]; 20000 nM
  level (log10): -0.0125 ± 0.0078
[4]; 60000 nM
  level (log10): -0.0185 ± 0.011
[5]; 6700 nM
  level (log10): 0.004
[5]; 20000 nM
  level (log10): 0 ± 0.0014
[5]; 60000 nM
  level (log10): -0.0055 ± 0.005

Source: the supplement of paper PMC10331698
